# Data reported in patent publication US9328122B2, “7-substituted Hanfangichin B derivative, and preparation method and use thereof” (HANGZHOU BENSHENG PHARMACEUTICAL CO., LTD., priority 2012, dated 2016).
# Assays:
# tumor = assay: Antitumor activity compared with fangchinoline, overall statement; assay type: cell-based; settings: tumor type not specified
# [1] = test system: NB4 (acute promyelocytic leukemia) cells; assay: MTT cell growth inhibition, leukemia cells; assay type: cell-based; settings: Homo sapiens, NB4, 72 h, MTT
# From the text: (§1) Leukemia cell lines: leukemia cell lines: K562adr (drug-resistant, chronic myeloid leukemia, CML), NB4 (acute promyelocytic leukemia, AML), Kasumi-1 (acute myeloid leukemia M2 type, AML-M2), Jurkat (acute lymphoblastic leukemia, ALL), all of which were donated by Cancer Research Institute of Zhejiang University, China; and H9 (acute lymphoblastic leukemia, ALL), which was purchased from China Center for Type Culture Collection.
# (§2) Reagents: The standard sample of fangchinoline (FAN) was purchased from Ci Yuan Biotechnology Co., Ltd., Shaanxi, China; and the 7-substituted fangchinoline derivatives according to the present invention.
# (§3) 6000 well-growing leukemia cells were obtained and inoculated into wells of a 96-well cell culture plate. The culture medium was a RPMI-1640 cell culture medium containing 10% fetal bovine serum. After adding the 7-substituted fangchinoline derivatives of different concentrations the next day and mixing uniformly, the plate was placed in a carbon dioxide cell incubator (5% CO2) at 37° C. and incubating for 72 hours. Then the viable cell concentration was determined by the MTT method.
# [2] = test system: K562/ADR (K562adr, drug-resistant chronic myeloid leukemia) cells; assay: MTT cell growth inhibition, leukemia cells; assay type: cell-based; settings: Homo sapiens, K562/ADR, 72 h, MTT
# From the text: as §1, §2, §3
# [3] = test system: H9 (acute lymphoblastic leukemia) cells; assay: MTT cell growth inhibition, leukemia cells; assay type: cell-based, human; settings: Homo sapiens, H9, 72 h, MTT
# From the text: as §1, §2, §3
# [4] = test system: Kasumi-1 (acute myeloid leukemia M2 type) cells; assay: MTT cell growth inhibition, leukemia cells; assay type: cell-based, human; settings: Homo sapiens, Kasumi-1, 72 h, MTT
# From the text: as §1, §2, §3
# [5] = test system: Jurkat (acute lymphoblastic leukemia) cells; assay: MTT cell growth inhibition, leukemia cells; assay type: cell-based, human; settings: Homo sapiens, Jurkat, 72 h, MTT
# From the text: as §1, §2, §3
# [6] = test system: MG-63 (osteosarcoma) cells; assay: MTT cell growth inhibition, solid tumor cells; assay type: cell-based; settings: Homo sapiens, MG-63, 72 h, MTT
# From the text: (§4) Hep-2 (laryngeal carcinoma), A549 (human lung cancer), CaES-17 (esophageal cancer cell), PC-3 (prostate cancer), CNE (nasopharyngeal carcinoma cell) and SK-OV-3 (ovarian cancer cell), all of which were purchased from China Center For Type Culture Collection; RKO (human colon adenocarcinoma cell), MGC-803 (human gastric cancer cell), MG-63 (osteosarcoma), and U87-MG (malignant glioma cell), all of which were purchased from Fuxiang Bio-tech Co. Ltd., Shanghai, China; PANC-1 (pancreatic cancer), Becap37 (human breast cancer cell), Hela (human cervical cancer cell) and Hep G2 (human liver cancer cell), all of which were donated by Cancer Research Institute of Zhejiang University, China.
# as §3, with “human solid tumor” for “leukemia”, “DMEM High Glucose” for “a RPMI-1640”, “serum. The plate was placed in a carbon dioxide cell incubator (5% CO2) at 37° C. and incubated for 24 hours.” for “serum.”, “added with” for “adding the”, “concentration” for “concentrations the next day”, “incubated” for “incubating”
# [7] = test system: U87-MG (malignant glioma) cells; assay: MTT cell growth inhibition, solid tumor cells; assay type: cell-based; settings: Homo sapiens, U-87 MG, U87-MG, 72 h, MTT
# From the text: as §4
# as §3, with “human solid tumor” for “leukemia”, “DMEM High Glucose” for “a RPMI-1640”, “serum. The plate was placed in a carbon dioxide cell incubator (5% CO2) at 37° C. and incubated for 24 hours.” for “serum.”, “added with” for “adding the”, “concentration” for “concentrations the next day”, “incubated” for “incubating”
# [8] = test system: RKO (human colon adenocarcinoma) cells; assay: MTT cell growth inhibition, solid tumor cells; assay type: cell-based; settings: Homo sapiens, RKO, 72 h, MTT
# From the text: as §4
# as §3, with “human solid tumor” for “leukemia”, “DMEM High Glucose” for “a RPMI-1640”, “serum. The plate was placed in a carbon dioxide cell incubator (5% CO2) at 37° C. and incubated for 24 hours.” for “serum.”, “added with” for “adding the”, “concentration” for “concentrations the next day”, “incubated” for “incubating”
# [9] = test system: A549 (human lung cancer) cells; assay: MTT cell growth inhibition, solid tumor cells; assay type: cell-based; settings: Homo sapiens, A549, 72 h, MTT
# From the text: as §4
# as §3, with “human solid tumor” for “leukemia”, “DMEM High Glucose” for “a RPMI-1640”, “serum. The plate was placed in a carbon dioxide cell incubator (5% CO2) at 37° C. and incubated for 24 hours.” for “serum.”, “added with” for “adding the”, “concentration” for “concentrations the next day”, “incubated” for “incubating”
# [10] = test system: Hela (human cervical cancer) cells; assay: MTT cell growth inhibition, solid tumor cells; assay type: cell-based; settings: Homo sapiens, Hela, 72 h, MTT
# From the text: as §4
# as §3, with “human solid tumor” for “leukemia”, “DMEM High Glucose” for “a RPMI-1640”, “serum. The plate was placed in a carbon dioxide cell incubator (5% CO2) at 37° C. and incubated for 24 hours.” for “serum.”, “added with” for “adding the”, “concentration” for “concentrations the next day”, “incubated” for “incubating”
# [11] = test system: MGC-803 (human gastric cancer) cells; assay: MTT cell growth inhibition, solid tumor cells; assay type: cell-based; settings: MGC-803, 72 h, MTT
# From the text: as §4
# as §3, with “human solid tumor” for “leukemia”, “DMEM High Glucose” for “a RPMI-1640”, “serum. The plate was placed in a carbon dioxide cell incubator (5% CO2) at 37° C. and incubated for 24 hours.” for “serum.”, “added with” for “adding the”, “concentration” for “concentrations the next day”, “incubated” for “incubating”
# [12] = test system: Hep-2 (laryngeal carcinoma) cells; assay: MTT cell growth inhibition, solid tumor cells; assay type: cell-based; settings: Homo sapiens, Hep-2, 72 h, MTT
# From the text: as §4
# as §3, with “human solid tumor” for “leukemia”, “DMEM High Glucose” for “a RPMI-1640”, “serum. The plate was placed in a carbon dioxide cell incubator (5% CO2) at 37° C. and incubated for 24 hours.” for “serum.”, “added with” for “adding the”, “concentration” for “concentrations the next day”, “incubated” for “incubating”
# [13] = test system: Hep G2 (human liver cancer) cells; assay: MTT cell growth inhibition, solid tumor cells; assay type: cell-based
# From the text: as §4
# as §3, with “human solid tumor” for “leukemia”, “DMEM High Glucose” for “a RPMI-1640”, “serum. The plate was placed in a carbon dioxide cell incubator (5% CO2) at 37° C. and incubated for 24 hours.” for “serum.”, “added with” for “adding the”, “concentration” for “concentrations the next day”, “incubated” for “incubating”
# [14] = test system: Becap-37 (human breast cancer) cells; assay: MTT cell growth inhibition, solid tumor cells; assay type: cell-based
# From the text: as §4
# as §3, with “human solid tumor” for “leukemia”, “DMEM High Glucose” for “a RPMI-1640”, “serum. The plate was placed in a carbon dioxide cell incubator (5% CO2) at 37° C. and incubated for 24 hours.” for “serum.”, “added with” for “adding the”, “concentration” for “concentrations the next day”, “incubated” for “incubating”
# [15] = test system: CNE (nasopharyngeal carcinoma) cells; assay: MTT cell growth inhibition, solid tumor cells; assay type: cell-based, human; settings: Homo sapiens, CNE, 72 h, MTT
# From the text: as §4
# as §3, with “human solid tumor” for “leukemia”, “DMEM High Glucose” for “a RPMI-1640”, “serum. The plate was placed in a carbon dioxide cell incubator (5% CO2) at 37° C. and incubated for 24 hours.” for “serum.”, “added with” for “adding the”, “concentration” for “concentrations the next day”, “incubated” for “incubating”
# [16] = test system: PANC-1 (pancreatic cancer) cells; assay: MTT cell growth inhibition, solid tumor cells; assay type: cell-based, human
# From the text: as §4
# as §3, with “human solid tumor” for “leukemia”, “DMEM High Glucose” for “a RPMI-1640”, “serum. The plate was placed in a carbon dioxide cell incubator (5% CO2) at 37° C. and incubated for 24 hours.” for “serum.”, “added with” for “adding the”, “concentration” for “concentrations the next day”, “incubated” for “incubating”
# [17] = test system: CaEs-17 (esophageal cancer) cells; assay: MTT cell growth inhibition, solid tumor cells; assay type: cell-based, human; settings: Homo sapiens, CaEs17, CaEs-17, 72 h, MTT
# From the text: as §4
# as §3, with “human solid tumor” for “leukemia”, “DMEM High Glucose” for “a RPMI-1640”, “serum. The plate was placed in a carbon dioxide cell incubator (5% CO2) at 37° C. and incubated for 24 hours.” for “serum.”, “added with” for “adding the”, “concentration” for “concentrations the next day”, “incubated” for “incubating”
# [18] = test system: SK-OV-3 (ovarian cancer) cells; assay: MTT cell growth inhibition, solid tumor cells; assay type: cell-based, human; settings: Homo sapiens, SK-OV-3, 72 h, MTT
# From the text: as §4
# as §3, with “human solid tumor” for “leukemia”, “DMEM High Glucose” for “a RPMI-1640”, “serum. The plate was placed in a carbon dioxide cell incubator (5% CO2) at 37° C. and incubated for 24 hours.” for “serum.”, “added with” for “adding the”, “concentration” for “concentrations the next day”, “incubated” for “incubating”
# [19] = test system: PC-3 (prostate cancer) cells; assay: MTT cell growth inhibition, solid tumor cells; assay type: cell-based, human; settings: Homo sapiens, PC-3, 72 h, MTT
# From the text: as §4
# as §3, with “human solid tumor” for “leukemia”, “DMEM High Glucose” for “a RPMI-1640”, “serum. The plate was placed in a carbon dioxide cell incubator (5% CO2) at 37° C. and incubated for 24 hours.” for “serum.”, “added with” for “adding the”, “concentration” for “concentrations the next day”, “incubated” for “incubating”
# [20] = relative to fangchinoline, Table 2
compound,measurement,setting,value
COc1ccc2cc1Oc1ccc(cc1)C[C@H]1c3cc(c(OC)cc3CCN1C)Oc1c(OCC(O)CN3CCCC(C)C3)c(OC)cc3c1[C@H](C2)N(C)CC3 (stereo partly drawn) [BS-FC-410],antitumor activity compared with that of fangchinoline,tumor,significantly superior
same,IC50,[1]; read-out: IC50,0.28 µg/mL
same,IC90,[1]; read-out: IC90,0.91 µg/mL
same,IC50,[2]; read-out: IC50,0.05 µg/mL
same,IC90,[2]; read-out: IC90,0.63 µg/mL
same,IC50,[3]; read-out: IC50,1.13 µg/mL
same,IC90,[3]; read-out: IC90,2 µg/mL
same,IC50,[4]; read-out: IC50,0.84 µg/mL
same,IC90,[4]; read-out: IC90,1.86 µg/mL
same,IC50,[5]; read-out: IC50,0.64 µg/mL
same,IC90,[5]; read-out: IC90,1.61 µg/mL
same,IC50,[6]; read-out: IC50,1.1 µg/mL
same,IC90,[6]; read-out: IC90,1.7 µg/mL
same,IC50,[7]; read-out: IC50,0.67 µg/mL
same,IC90,[7]; read-out: IC90,1.19 µg/mL
same,IC50,[8]; read-out: IC50,0.44 µg/mL
same,IC90,[8]; read-out: IC90,0.95 µg/mL
same,IC50,[9]; read-out: IC50,1.71 µg/mL
same,IC90,[9]; read-out: IC90,6.8 µg/mL
same,IC50,[10]; read-out: IC50,1.33 µg/mL
same,IC90,[10]; read-out: IC90,2.41 µg/mL
same,IC50,[11]; read-out: IC50,0.49 µg/mL
same,IC90,[11]; read-out: IC90,3.21 µg/mL
same,IC50,[12]; read-out: IC50,2.25 µg/mL
same,IC90,[12]; read-out: IC90,8 µg/mL
same,IC50,"[13]; Homo sapiens, HepG2, Hep G2, 72 h, MTT, read-out: IC50",0.66 µg/mL
same,IC90,"[13]; Homo sapiens, HepG2, Hep G2, 72 h, MTT, read-out: IC90",1.51 µg/mL
same,anti-Hep G2 activity increase over fangchinoline,[13]; [20],~3 fold
same,IC50,"[14]; Homo sapiens, Becap-37, 72 h, MTT, read-out: IC50",0.73 µg/mL
same,IC90,"[14]; Homo sapiens, Becap-37, 72 h, MTT, read-out: IC90",2.48 µg/mL
same,anti-Becap37 activity increase over fangchinoline,[14]; [20],~3 fold
same,IC50,[15]; read-out: IC50,1.1 µg/mL
same,IC90,[15]; read-out: IC90,2.4 µg/mL
same,IC50,"[16]; Homo sapiens, PANC-1, 72 h, MTT, read-out: IC50",1.11 µg/mL
same,IC90,"[16]; Homo sapiens, PANC-1, 72 h, MTT, read-out: IC90",3.77 µg/mL
same,anti-PANC-1 activity increase over fangchinoline,[16]; [20],~3 fold
same,IC50,[17]; read-out: IC50,0.76 µg/mL
same,IC90,[17]; read-out: IC90,4.3 µg/mL
same,IC50,[18]; read-out: IC50,1.39 µg/mL
same,IC90,[18]; read-out: IC90,5.59 µg/mL
same,IC50,[19]; read-out: IC50,2.85 µg/mL
same,IC90,[19]; read-out: IC90,3.89 µg/mL
